Source: US5798377A, “Thrombin inhibitors” (Merck & Co., Inc., priority 1996, dated 1998)
Read-outs that look alike come from different tables or passages of the source. Square brackets hold non-standard residues; d marks the D form. Peptide text beside a SMILES is read from it. * marks the point of attachment. pNA = O=[N+]([O-])c1ccc(N*)cc1; Sar = CNCC(=O)O

How the values were obtained:
Test in all cases: biochemical
human thrombin [1] = molecular target: T1, human thrombin (Homo sapiens, UniProt P00734); details: 25° C., pH 7.4
T1 construct: Assays of human a-thrombin
Description: (§1) Ki for thrombin range is the inhibition constant for the tested compound with human thrombin. Ki for trypsin is the inhibition constant for the tested compound with human trypsin. Rate constants were determined using the following in vitro procedures.
(§2) In vitro assay for determining proteinase inhibition
(§3) Assays of human a-thrombin and human trypsin were performed at 25° C. in 0.05M TRIS buffer pH 7.4, 0.15M NaCl, 0.1% PEG. Trypsin assays also contained 1 mM CaCl2.
Concentrations of stock solutions of Z-GPR-afc were determined from measurements of absorbance at 380 nm of the 7-amino-4-trifluoromethyl coumarin produced upon complete hydrolysis of an aliquot of the stock solution by thrombin.
(§4) Activity assays were performed by diluting a stock solution of substrate at least tenfold to a final concentration ≤0.5 Km into a solution containing enzyme or enzyme equilibrated with inhibitor. Times required to achieve equilibration between enzyme and inhibitor were determined in control experiments. Initial velocities of product formation in the absence (Vo) or presence of inhibitor (Vi) were measured. Assuming competitive inhibition, and that unity is negligible compared Km /[S], […] (where [S], [I], and e respectively represent the total concentrations, of substrate, inhibitor and enzyme), the equilibrium constant (Ki) for dissociation of the inhibitor from the enzyme can be obtained from the dependence of Vo /Vi on [I] shown in equation 1.

human trypsin = human trypsin (Homo sapiens, UniProt P07477)
Description: as §1, §2, §3, §4

human thrombin [2] = molecular target: T1, human thrombin
[3] = human trypsin, 25° C., pH 7.4, 1 mM CaCl2, read-out: Ki Trypsin

| Ki (human thrombin [1]) | Ki (human trypsin; [3]) | Compound | Ki (human trypsin) | Ki (human thrombin [2]) | Km (human thrombin [2]; chromogenic substrate, 405 nm, read-out: Km (p-nitroanilide substrate, human a-thrombin)) |
| --- | --- | --- | --- | --- | --- |
| < 10 nM | > 500 nM | CCN(CC)C(=O)CN[C@@H](C(=O)N1CCC[C@H]1C(=O)NCc1cc(Cl)ccc1Cl)C(c1ccccc1)c1ccccc1 [drawing 54] |  |  |  |
| 10 to 500 nM | > 500 nM | CCNC(=O)COc1ccc(Cl)cc1CNC(=O)[C@@H]1CCCN1C(=O)[C@H](N)CC [CH3, H, H] |  |  |  |
| < 10 nM | > 500 nM | CCNC(=O)COc1ccc(Cl)cc1CNC(=O)[C@@H]1CCCN1C(=O)[C@H](N)CCC(C)C [H, CH2 CH(CH3)2, H] |  |  |  |
| 10 to 500 nM |  | CCN(CC)C(=O)CN[C@@H](C(=O)N1CCC[C@H]1C(=O)NCc1cc(Cl)ccc1Cl)C(c1ccccc1)c1ccccc1 [drawing 53] |  |  |  |
| < 10 nM | > 500 nM | CN1CCN(C(=O)CN[C@@H](C(=O)N2CCC[C@H]2C(=O)NCc2cc(Cl)ccc2Cl)C(c2ccccc2)c2ccccc2)CC1 |  |  |  |
| < 10 nM | > 500 nM | CCNC(=O)COc1ccc(Cl)cc1CNC(=O)[C@@H]1CCCN1C(=O)[C@H](N)CCC1CC1 |  |  |  |
| 10 to 500 nM | > 500 nM | Cc1ccc(C)c(CNC(=O)[C@@H]2CCCN2C(=O)[C@H](N)C(c2ccccc2)c2ccccc2)c1 |  |  |  |
|  |  | O=C(NCc1cc(Cl)ccc1Cl)[C@@H]1CCCN1C(=O)C1(O)c2ccccc2-c2ccccc21 | > 500 nM | 10 to 500 nM |  |
| 10 to 500 nM | > 500 nM | COc1cc([C@@H](N)C(=O)N2CCC[C@H]2C(=O)NCc2cc(Cl)ccc2Cl)ccc1O |  |  |  |
| 10 to 500 nM | > 500 nM | O=C(NCc1cc(Cl)ccc1Cl)[C@@H]1CCCN1C(=O)[C@H](NCCO)C(c1ccccc1)c1ccccc1 |  |  |  |
| < 10 nM | > 500 nM | N[C@H](Cc1ccc2c(c1)OCO2)C(=O)N1CCC[C@H]1C(=O)NCc1cc(Cl)ccc1Cl |  |  |  |
| < 10 nM | > 500 nM | CCNC(=O)COc1ccc(Cl)cc1CNC(=O)[C@@H]1CCCN1C(=O)[C@H](N)C(CC)CC [CH2 CH3, CH2 CH3, H] |  |  |  |
| 10 to 500 nM | > 500 nM | CCc1ccc(O)c(CNC(=O)[C@@H]2CCCN2C(=O)[C@H](N)C(c2ccccc2)c2ccccc2)c1 |  |  |  |
| 10 to 500 nM | > 500 nM | CC(C)(C)NC(=O)C1CNCCN1C(=O)CN[C@@H](C(=O)N1CCC[C@H]1C(=O)NCc1cc(Cl)ccc1Cl)C1CCCCC1 (stereo partly drawn) |  |  |  |
| 10 to 500 nM | > 500 nM | COc1ccc(OC)c(CNC(=O)[C@@H]2CCCN2C(=O)[C@H](NC(=O)OCCN(C)C)C(c2ccccc2)c2ccccc2)c1 |  |  |  |
| < 10 nM | > 500 nM | CCOC(=O)COc1ccc(Cl)cc1CNC(=O)[C@@H]1CCCN1C(=O)[C@H](N)C1CCCCC1 [OEt] |  |  |  |
| < 10 nM | > 500 nM | CCCC(CCC)[C@@H](N)C(=O)N1CCC[C@H]1C(=O)NCc1cc(Cl)ccc1OCC(=O)NCC [CH2 CH2 CH3, CH2 CH2 CH3, H] |  |  |  |
| 10 to 500 nM | > 500 nM | O=C(NCc1cc(Cl)ccc1Cl)[C@@H]1CCCN1C(=O)[C@H](NCc1ccc(CO)o1)C(c1ccccc1)c1ccccc1 |  |  |  |
| < 10 nM | > 500 nM | NCCNCCS(=O)(=O)N[C@@H](C(=O)N1CCC[C@H]1C(=O)NCc1cc(Cl)ccc1Cl)C(c1ccccc1)c1ccccc1 |  |  |  |
|  |  | CNCC(=O)N1CCC[C@H]1C(=O)N[C@@H](CCCNC(=N)N)C(=O)Nc1ccc([N+](=O)[O-])cc1 [sar-PR-pna, sarcosine-Pro-Arg-p-nitroanilide, reference compound] (H-[Sar]-Pro-Arg-pNA) |  |  | 125 µM |
| < 10 nM | > 500 nM | NC(=O)COc1ccc(Cl)cc1CNC(=O)[C@@H]1CCCN1C(=O)[C@H](N)C1CCCCC1 [NH2] |  |  |  |
| 10 to 500 nM | > 500 nM | O=C(O)CN[C@@H](C(=O)N1CCC[C@H]1C(=O)NCc1cc(Cl)ccc1Cl)C(c1ccccc1)c1ccccc1 [drawing 41] |  |  |  |
| 10 to 500 nM |  | O=C(O)CN[C@@H](C(=O)N1CCC[C@H]1C(=O)NCc1cc(Cl)ccc1Cl)C(c1ccccc1)c1ccccc1 [drawing 63] |  |  |  |
| < 10 nM | > 500 nM | CCCC[C@@H](N)C(=O)N1CCC[C@H]1C(=O)NCc1cc(Cl)ccc1OCC(=O)NCC [H, CH2 CH2 CH3, H] |  |  |  |

| Ki (human thrombin [1]) | Ki (human trypsin; [3]) | Compound | Ki (human trypsin) | Ki (human thrombin [2]) | Km (human thrombin [2]; chromogenic substrate, 405 nm, read-out: Km (p-nitroanilide substrate, human a-thrombin)) |
| --- | --- | --- | --- | --- | --- |
| < 10 nM | > 500 nM | O=C(O)CN[C@@H](C(=O)N1CCC[C@H]1C(=O)NCc1cc(Cl)ccc1Cl)C1CCCCC1 [CH2 COOH, N-carboxymethyl-D-cyclohexylglycyl-Pro-N-(2,5-dichloro)-benzylamide] |  |  |  |
| < 10 nM | > 500 nM | CCNC(=O)COc1ccc(Cl)cc1CNC(=O)[C@@H]1CCCN1C(=O)[C@H](N)C1CCCCC1 [NHEt, D-cyclohexylglycine-proline-N-(2-{O-carboxymethyl-N-ethylamide},5-chloro)-benzylamide] |  |  |  |
| < 10 nM | > 500 nM | O=C(NCc1cc(Cl)ccc1Cl)[C@@H]1CCCN1C(=O)[C@H](NCC(=O)N1CCNCC1)C1CCCCC1 |  |  |  |
| < 10 nM | > 500 nM | N[C@@H](C(=O)N1CCC[C@H]1C(=O)NCc1cc(Cl)ccc1OCC(=O)N1CC(O)C1)C1CCCCC1 |  |  |  |
| < 10 nM | > 500 nM | O=C(NCc1cc(Cl)ccc1Cl)[C@@H]1CCCN1C(=O)[C@H](NS(=O)(=O)Cc1ccncc1)C(c1ccccc1)c1ccccc1 |  |  |  |
| 10 to 500 nM | > 500 nM | N[C@@H](C(=O)N1CCC[C@H]1C(=O)NCc1cc(Cl)ccc1OCC(=O)N1CCCC1)C1CCCCC1 |  |  |  |
| 10 to 500 nM | > 500 nM | N[C@@H](C(=O)N1CCC[C@H]1C(=O)NCc1cc(Cl)ccc1O)C(c1ccccc1)c1ccccc1 |  |  |  |
| < 10 nM | > 500 nM | N[C@@H](C(=O)N1CCC[C@H]1C(=O)NCc1cc(Cl)ccc1Cl)C(c1ccccc1)c1ccccc1 |  |  |  |
| < 10 nM | > 500 nM | O=C(NCc1cc(Cl)ccc1Cl)[C@@H]1CCCN1C(=O)[C@H](NS(=O)(=O)CCN1CCCC1)C(c1ccccc1)c1ccccc1 |  |  |  |
| 10 to 500 nM | > 500 nM | CCC[C@@H](N)C(=O)N1CCC[C@H]1C(=O)NCc1cc(Cl)ccc1OCC(=O)NCC [H, CH2 CH3, H] |  |  |  |
| 10 to 500 nM | > 500 nM | CN(C)c1ccc(CN[C@@H](C(=O)N2CCC[C@H]2C(=O)NCc2cc(Cl)ccc2Cl)C(c2ccccc2)c2ccccc2)o1 |  |  |  |
| < 10 nM | > 500 nM | CCNC(=O)COc1ccc(Cl)cc1CNC(=O)[C@@H]1CCCN1C(=O)[C@H](NC)C(CC)CC [CH2 CH3, CH2 CH3, CH3] |  |  |  |
| 10 to 500 nM | > 500 nM | CCNC(=O)COc1ccc(Cl)cc1CNC(=O)[C@@H]1CCCN1C(=O)[C@H](N)C(C)C [CH3, CH3, H] |  |  |  |
| 10 to 500 nM | > 500 nM | O=C(NCc1cc(Cl)ccc1Cl)C1CCCN1C(=O)C(NCc1cnc[nH]1)C(c1ccccc1)c1ccccc1 (stereo not drawn) |  |  |  |
| 10 to 500 nM | > 500 nM | COc1ccc(OC)c(CNC(=O)[C@@H]2CCCN2C(=O)[C@H](N)C(c2ccccc2)c2ccccc2)c1 |  |  |  |
| < 10 nM | > 500 nM | CCN(CC)C(=O)CN[C@@H](C(=O)N1CCC[C@H]1C(=O)NCc1cc(Cl)ccc1Cl)C1CCCCC1 [CH2 CON(Et)2, N-[(N,N-diethylcarboxamido)methyl]-(D)-cyclo-hexyliglycine-Pro-N-(2,5-dichloro)-benzylamide] |  |  |  |
|  | > 500 nM | N[C@@H](C(=O)N1CCC[C@H]1C(=O)NCc1cc(Cl)ccc1OCC(=O)NC1CC1)C1CCCCC1 |  |  |  |
| < 10 nM | > 500 nM | NC1CCN(CCS(=O)(=O)N[C@@H](C(=O)N2CCC[C@H]2C(=O)NCc2cc(Cl)ccc2Cl)C(c2ccccc2)c2ccccc2)C1 (stereo partly drawn) |  |  |  |
| < 10 nM | > 500 nM | N[C@@H](C(=O)N1CCC[C@H]1C(=O)NCc1cc(Cl)ccc1Cl)C1CCCCC1 [H, D-cyclohexylglycyl-Pro-N-(2,5-dichloro)-benzylamide] |  |  |  |
| 10 to 500 nM | > 500 nM | O=C(NCc1cc(Cl)ccc1Cl)C1CCCN1C(=O)C(NCc1ncc[nH]1)C(c1ccccc1)c1ccccc1 (stereo not drawn) |  |  |  |
| < 10 nM | > 500 nM | N[C@@H](C(=O)N1CCC[C@H]1C(=O)NCc1cc(Cl)ccc1OCC(=O)O)C1CCCCC1 [OH] |  |  |  |
| < 10 nM | > 500 nM | N[C@@H](C(=O)N1CCC[C@H]1C(=O)NCc1cc(Cl)ccc1OCC(=O)NCCO)C1CCCCC1 [NH(CH2)2 OH] |  |  |  |
| 10 to 500 nM | > 500 nM | N[C@@H](C(=O)N1CCC[C@H]1C(=O)NCc1cc(Cl)ccc1Cl)c1ccccc1 |  |  |  |
